Literature values, collected in patent US20220079889A1, “USE OF CANNABANOIDS IN THE TREATMENT OF PROLIFERATIVE DIABETIC RETINOPATHY” (VERDANT PHARMACEUTICALS, LLC, priority 2020, published 2022).

Target: T1, monoamine oxidase (MAO)-A (Homo sapiens, UniProt P21397)
T1 sequence (P21397 1-527): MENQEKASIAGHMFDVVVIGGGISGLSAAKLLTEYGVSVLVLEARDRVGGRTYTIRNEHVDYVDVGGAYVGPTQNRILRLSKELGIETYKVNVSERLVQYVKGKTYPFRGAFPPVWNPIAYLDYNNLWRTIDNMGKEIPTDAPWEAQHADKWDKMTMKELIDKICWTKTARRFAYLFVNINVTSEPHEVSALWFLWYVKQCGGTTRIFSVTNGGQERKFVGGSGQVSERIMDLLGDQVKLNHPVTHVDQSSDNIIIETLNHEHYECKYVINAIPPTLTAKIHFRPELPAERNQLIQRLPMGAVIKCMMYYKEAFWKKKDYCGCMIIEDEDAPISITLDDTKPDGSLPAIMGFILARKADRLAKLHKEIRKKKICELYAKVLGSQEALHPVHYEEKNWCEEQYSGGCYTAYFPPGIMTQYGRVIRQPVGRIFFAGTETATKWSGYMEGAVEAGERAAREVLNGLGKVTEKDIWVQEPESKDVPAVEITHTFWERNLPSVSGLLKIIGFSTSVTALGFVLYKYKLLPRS
Conditions: functionally related monoamine oxidase; read-out: IC50 against MAO-A; cited from earlier work

**Q.** For `CC(=O)Nc1nc(CCc2ccc(NC(=N)NN)cc2)c(Cc2ccc(S(C)(=O)=O)cc2)s1` [Compound II], which IC50 is on record?
**A.** Its IC50 is > 10 µM.
